Source: paper PMC7738871, “Covalent modification of Keap1 at Cys77 and Cys434 by pubescenoside a suppresses oxidative stress-induced NLRP3 inflammasome activation in myocardial ischemia-reperfusion injury” (Theranostics, 2021)

Legend:
HO-1 and NQO1 = HO-1 and NQO1 protein expression, RAW264.7; assay type: cell-based; settings: RAW264.7, 24 h, dose-dependent
Experimental: (§1) Total protein was isolated from H9c2 cells, primary mouse cardiomyocytes, RAW264.7 cells and heart tissue using 1X RIPA buffer containing phosphatase and proteinase inhibitors at 4 °C. After measurement of the concentration, the cell lysates were separated by sodium dodecyl sulphate polyacrylamide gel electrophoresis (SDS-PAGE) and transferred to polyvinylidene fluoride (PVDF) membranes. The membranes were blocked in Tris-buffered saline-Tween 20 (TBST) buffer with 5% BSA for 1 h and incubated with primary antibodies (1:1000 dilution) overnight at 4 °C. After the membranes was washed by TBST buffer for three times, they were incubated with horseradish peroxidase (HRP)-conjugated secondary mouse or rabbit antibodies (1:3,000 dilution) at room temperature (RT) for 1.5 h and then detected by SuperEnhanced chemiluminescence (ECL) reaction reagents (GBCBIO Technologies Inc., Guangzhou, Guangdong, China). In brief, drop evenly the ECL working liquid onto the membrane at the ratio of 1 mL ECL working liquid and 10 cm^2 of membrane. After letting the membranes stand for 1-2 min, the bands of the respective proteins were detected with the exposure time of 10 ~60 s.

ROS in RAW264.7 cells = test: Intracellular ROS (DCFH-DA), LPS plus ATP macrophages; assay type: cell-based
Experimental: The fluorescent probe DCFH-DA was used to measure intracellular ROS levels. RAW264.7 cells were treated with 100 μg/mL LPS plus ATP as mentioned above. H9c2 cells underwent OGD/R. After the appropriate treatment, the cells were incubated with DCFH-DA at a concentration of 10 μM for 30 min. The cells were washed with PBS three times. A fluorescence microscope and microplate reader were used to measure the level of DCFH-DA fluorescence at the excitation wavelength of 488 nm and the emission wavelength of 525 nm.

Keap1 C273S = target: T1, Keap1 C273S (Homo sapiens, UniProt Q14145, C273S); test: ITC titration of PBA with Keap1-C273S; assay type: binding; settings: 25 ℃
T1 construct: His (N); made in house; host or cells: E. coli BL21 (DE3)
T1 sequence (Q14145 whole entry C273S): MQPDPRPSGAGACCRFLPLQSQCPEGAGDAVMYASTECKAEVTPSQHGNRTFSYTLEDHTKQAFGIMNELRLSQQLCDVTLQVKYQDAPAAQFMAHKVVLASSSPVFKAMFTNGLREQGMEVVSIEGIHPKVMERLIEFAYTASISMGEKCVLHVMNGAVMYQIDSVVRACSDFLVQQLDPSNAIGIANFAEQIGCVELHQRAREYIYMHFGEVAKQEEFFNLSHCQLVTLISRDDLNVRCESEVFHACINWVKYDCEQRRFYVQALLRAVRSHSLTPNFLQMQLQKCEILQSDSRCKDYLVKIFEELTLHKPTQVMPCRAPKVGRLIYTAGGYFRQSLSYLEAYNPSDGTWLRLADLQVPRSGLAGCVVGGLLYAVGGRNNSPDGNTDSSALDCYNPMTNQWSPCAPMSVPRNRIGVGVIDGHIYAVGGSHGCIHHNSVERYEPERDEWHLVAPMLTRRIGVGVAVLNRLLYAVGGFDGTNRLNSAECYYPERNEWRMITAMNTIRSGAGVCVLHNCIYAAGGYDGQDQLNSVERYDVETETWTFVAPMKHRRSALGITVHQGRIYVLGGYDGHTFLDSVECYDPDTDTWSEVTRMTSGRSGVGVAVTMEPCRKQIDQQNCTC
Experimental: (§2) The Keap1 was amplified by PCR using a human cDNA library, and was subcloned into the vector pET28-TEV, which contained one tobacco etch virus (TEV) protease cleavage site at the upstream multiple cloning site. The protein was expressed in E. coli BL21 (DE3) cells and incubated at 37 °C until the OD600 value reached 0.6, using 0.2 mM isopropyl β-D-1-thiogalactopyranoside (IPTG) overnight induction at 18 °C. The cells were isolated by centrifugation, resuspended in ice-cold lysis buffer and lysed by cryogenic overpressure cell breaker at 1,200 psi. The lysates were centrifuged for 60 min at 14,000 rpm to obtain the supernatant. Gravity flow purification of Keap1 protein was obtained at room temperature using 1 mL of Ni-NTA and eluted in buffer containing 250 mM imidazole, followed by 1 mL of HiTrap QHP for the second step purification. The final protein was purified and validated by Superdex 200 10/300GL resin.
(§3) The mutant plasmid DNA was obtained by PCR. The PCR products were cleaved by DpnI restriction enzymes. The restriction endonuclease-cleaved mixture was subsequently transformed into E. coli DH5α. Colonies were evaluated by colony PCR and sequenced. The mutant plasmid was transformed into E. coli BL21 (DE3) after successful sequencing. The steps for expression and purification of all recombinants were described above.
(§4) Isothermal calorimetry (ITC) titration experiments were performed at 25 °C. WT Keap1, Keap1 mutants and PBA were dissolved in binding buffer (40 mM Tris-HCl pH 8.0, 250 mM NaCl). In a typical experiment, 60 μL of PBA (1 mM) was injected 19 times at 2-min intervals from a stirring syringe into the sample cell containing 300 μL of WT protein or mutants (30 μM). The first injection was 0.4 μL of PBA, and the subsequent 18 injections were 2 μL each time. The site-binding models were determined by using MicroCal Origin software.

Keap1 C38S = target: T2, Keap1 C38S (Homo sapiens, UniProt Q14145, C38S); test: ITC titration of PBA with Keap1-C38S; assay type: binding; settings: 25 ℃
T2 construct: His (N); made in house; host or cells: E. coli BL21 (DE3)
T2 sequence (Q14145 whole entry C38S): as the sequence (Q14145 whole entry C273S) above, with C38S, S273C counted along it
Experimental: as §2, §3, §4

[1] = test system: OGD/R-induced primary mouse cardiomyocytes; test: OGD/R-induced injury, MTT viability, primary cardiomyocytes; assay type: cell-based; settings: 10 and 30 μM, OGD 3 h, reperfusion 18 h
Experimental: The heart was removed from the neonatal C57BL/6 mice and cut into 1 mm^3 pieces in ice […] buffer. The tissues were digested with the mixture of 0.125% trypsin (Gibco, 15090-046) and 0.1% type II collagenase (Gibco, 17101-015) 6 min at 37 °C for three times until the tissues were completely digested. The cells were harvested and seeded in a dish. After 90 min of incubation, the cell culture medium was collected and centrifuged. The centrifuged cardiomyocytes were harvested, seeded on 0.1 % gelatin-coated culture plates with DMEM containing 10% FBS and […] Brdu, and incubated in a 37°C incubator.
Cell viability was determined by MTT assays. PBA was prepared to a stock solution dissolved in dimethyl sulfoxide (DMSO). RAW264.7, H9c2 cells, primary mouse cardiomyocytes were treated with different doses of PBA, and DMSO only as control for 48 h for the toxicity. In addition, H9c2 cells or primary mouse cardiomyocytes were treated with the indicated doses of PBA, diazoxide as positive control, DMSO only as control, then cultured with or without OGD/R treatment. At the end of the experiments, MTT was added into each well at the concentration of 0.5 mg/ml, and incubated at 37 °C for 4 h. […] And the solution was measured at the absorbance of 490 nm by a spectrophotometer (Thermo Fisher Scientific, MA, USA). […]

Nrf2 = Nrf2 expression in cardiomyocytes under OGD/R; assay type: cell-based; settings: cardiomyocytes under OGD/R condition
Experimental: as §1

In the case of C=C(COC(=O)C=Cc1ccc(O)c(O)c1)C(O)COC1OC(CO)C(O)C(O)C1O (centres unmarked) [PBA, pubescenoside A], the “HO-1 and NQO1 expression at the protein level” value (HO-1 and NQO1) is reported as “increased”, the “LPS plus ATP-induced ROS” value (ROS in RAW264.7 cells) is reported as “significantly suppress” and the Kd (Keap1 C273S) is reported as 3.8 µM. The “T△S” value (Keap1 C273S) was 3.53 ± 0.00 kcal/mol, the “△G” value (Keap1 C273S) was -7.40 ± 0.00 kcal/mol and the “△H” value (Keap1 C273S) was -3.87 ± 0.271 kcal/mol. For the same molecule, the Kd (Keap1 C38S) was 8.59 µM, the “T△S” value (Keap1 C38S) was 2.32 ± 0.00 kcal/mol and the “△H” value (Keap1 C38S) was -4.59 ± 0.199 kcal/mol. The “protection against OGD/R induced injury (cell viability, MTT)” value [1] was “protected” and the Nrf2 expression (Nrf2) was “strongly induced”.
